Measurements as given in ChEMBL document CHEMBL1667786, “Synthesis and biological evaluation of indole-chalcone derivatives as β-amyloid imaging probe” (Bioorg Med Chem Lett, 2011).
The source made the active and inactive calls. No cut-off for these calls is given here.

Key:
[1] = species: Mus musculus; test: Binding affinity to amyloid beta in APP/PS1 transgenic C57 mouse brain at 1 uM after 10 mins by Thioflavin-S fluorescence assay; type: tissue-based; conditions: tested as the 125I-labelled form
[2] = Displacement of [125I]IMPY from amyloid beta 1 to 42 after 2 hrs
[3] = species: Mus musculus; test: Binding affinity to amyloid beta in APP/PS1 transgenic C57 mouse cortex at 1 uM after 10 mins by autoradiography; conditions: tested as the 125I-labelled form
[4] = test system: Stomach; test: Biodistribution in ddY mouse stomach assessed per gorgan at 1 uCi, iv after 30 mins; type: ADME, organism-based; conditions: in vivo, 0.5 h
[5] = test system: Lung; test: Biodistribution in ddY mouse lung assessed per gram of tissue at 1 uCi, iv after 15 mins; type: ADME, organism-based; conditions: in vivo, 0.25 h
[6] = test system: Liver; test: Biodistribution in ddY mouse liver assessed per gram of tissue at 1 uCi, iv after 2 mins; type: ADME, organism-based; conditions: in vivo
[7] = test system: Blood; test: Biodistribution in ddY mouse blood assessed per gram of tissue at 1 uCi, iv after 60 mins; type: ADME, organism-based; conditions: in vivo, 1 h
[8] = test system: Spleen; test: Biodistribution in ddY mouse spleen assessed per gram of tissue at 1 uCi, iv after 30 mins; type: ADME, organism-based; conditions: in vivo, 0.5 h
[9] = test system: Lung; test: Biodistribution in ddY mouse lung assessed per gram of tissue at 1 uCi, iv after 120 mins; type: ADME, organism-based; conditions: in vivo, 2 h
[10] = test system: Spleen; test: Biodistribution in ddY mouse spleen assessed per gram of tissue at 1 uCi, iv after 120 mins; type: ADME, organism-based; conditions: in vivo, 2 h
[11] = test system: Lung; test: Biodistribution in ddY mouse lung assessed per gram of tissue at 1 uCi, iv after 60 mins; type: ADME, organism-based; conditions: in vivo, 1 h
[12] = test system: Brain; test: Biodistribution in ddY mouse brain assessed per gram of tissue at 1 uCi, iv after 60 mins; type: ADME, organism-based; conditions: in vivo, 1 h
[13] = test system: Blood; test: Biodistribution in ddY mouse blood assessed per gram of tissue at 1 uCi, iv after 2 mins; type: ADME, organism-based; conditions: in vivo
[14] = test system: Stomach; test: Biodistribution in ddY mouse stomach assessed per gorgan at 1 uCi, iv after 60 mins; type: ADME, organism-based; conditions: in vivo, 1 h
[15] = test system: Kidney; test: Biodistribution in ddY mouse kidney assessed per gram of tissue at 1 uCi, iv after 15 mins; type: ADME, organism-based; conditions: in vivo, 0.25 h
[16] = test system: Lung; test: Biodistribution in ddY mouse lung assessed per gram of tissue at 1 uCi, iv after 2 mins; type: ADME, organism-based; conditions: in vivo
[17] = test system: Intestine; test: Biodistribution in ddY mouse intestine assessed per gram of tissue at 1 uCi, iv after 2 mins; type: ADME, organism-based; conditions: in vivo
[18] = test system: Blood; test: Biodistribution in ddY mouse blood assessed per gram of tissue at 1 uCi, iv after 30 mins; type: ADME, organism-based; conditions: in vivo, 0.5 h
[19] = test system: Kidney; test: Biodistribution in ddY mouse kidney assessed per gram of tissue at 1 uCi, iv after 60 mins; type: ADME, organism-based; conditions: in vivo, 1 h
[20] = test system: Liver; test: Biodistribution in ddY mouse liver assessed per gram of tissue at 1 uCi, iv after 15 mins; type: ADME, organism-based; conditions: in vivo, 0.25 h
[21] = test system: Brain; test: Biodistribution in ddY mouse brain assessed per gram of tissue at 1 uCi, iv after 30 mins; type: ADME, organism-based; conditions: in vivo, 0.5 h
[22] = test system: Stomach; test: Biodistribution in ddY mouse stomach assessed per gorgan at 1 uCi, iv after 15 mins; type: ADME, organism-based; conditions: in vivo, 0.25 h
[23] = test system: Liver; test: Biodistribution in ddY mouse liver assessed per gram of tissue at 1 uCi, iv after 60 mins; type: ADME, organism-based; conditions: in vivo, 1 h
[24] = test system: Intestine; test: Biodistribution in ddY mouse intestine assessed per gram of tissue at 1 uCi, iv after 120 mins; type: ADME, organism-based; conditions: in vivo, 2 h
[25] = test system: Intestine; test: Biodistribution in ddY mouse intestine assessed per gram of tissue at 1 uCi, iv after 15 mins; type: ADME, organism-based; conditions: in vivo, 0.25 h
[26] = test system: Stomach; test: Biodistribution in ddY mouse stomach assessed per gorgan at 1 uCi, iv after 2 mins; type: ADME, organism-based; conditions: in vivo
[27] = test system: Kidney; test: Biodistribution in ddY mouse kidney assessed per gram of tissue at 1 uCi, iv after 120 mins; type: ADME, organism-based; conditions: in vivo, 2 h
[28] = test system: Heart; test: Biodistribution in ddY mouse heart assessed per gram of tissue at 1 uCi, iv after 15 mins; type: ADME, organism-based; conditions: in vivo, 0.25 h
[29] = test system: Liver; test: Biodistribution in ddY mouse liver assessed per gram of tissue at 1 uCi, iv after 120 mins; type: ADME, organism-based; conditions: in vivo, 2 h
[30] = test system: Brain; test: Biodistribution in ddY mouse brain assessed per gram of tissue at 1 uCi, iv after 15 mins; type: ADME, organism-based; conditions: in vivo, 0.25 h
[31] = test system: Heart; test: Biodistribution in ddY mouse heart assessed per gram of tissue at 1 uCi, iv after 30 mins; type: ADME, organism-based; conditions: in vivo, 0.5 h
[32] = test system: Intestine; test: Biodistribution in ddY mouse intestine assessed per gram of tissue at 1 uCi, iv after 60 mins; type: ADME, organism-based; conditions: in vivo, 1 h
[33] = test system: Stomach; test: Biodistribution in ddY mouse stomach assessed per gorgan at 1 uCi, iv after 120 mins; type: ADME, organism-based; conditions: in vivo, 2 h
[34] = test system: Heart; test: Biodistribution in ddY mouse heart assessed per gram of tissue at 1 uCi, iv after 2 mins; type: ADME, organism-based; conditions: in vivo
[35] = test system: Spleen; test: Biodistribution in ddY mouse spleen assessed per gram of tissue at 1 uCi, iv after 15 mins; type: ADME, organism-based; conditions: in vivo, 0.25 h
[36] = test system: Heart; test: Biodistribution in ddY mouse heart assessed per gram of tissue at 1 uCi, iv after 120 mins; type: ADME, organism-based; conditions: in vivo, 2 h
[37] = test system: Blood; test: Biodistribution in ddY mouse blood assessed per gram of tissue at 1 uCi, iv after 120 mins; type: ADME, organism-based; conditions: in vivo, 2 h
[38] = test system: Lung; test: Biodistribution in ddY mouse lung assessed per gram of tissue at 1 uCi, iv after 30 mins; type: ADME, organism-based; conditions: in vivo, 0.5 h
[39] = test system: Kidney; test: Biodistribution in ddY mouse kidney assessed per gram of tissue at 1 uCi, iv after 2 mins; type: ADME, organism-based; conditions: in vivo
[40] = test system: Brain; test: Biodistribution in ddY mouse brain assessed per gram of tissue at 1 uCi, iv after 2 mins; type: ADME, organism-based; conditions: in vivo
[41] = test system: Heart; test: Biodistribution in ddY mouse heart assessed per gram of tissue at 1 uCi, iv after 60 mins; type: ADME, organism-based; conditions: in vivo, 1 h
[42] = test system: Spleen; test: Biodistribution in ddY mouse spleen assessed per gram of tissue at 1 uCi, iv after 60 mins; type: ADME, organism-based; conditions: in vivo, 1 h
[43] = test system: Kidney; test: Biodistribution in ddY mouse kidney assessed per gram of tissue at 1 uCi, iv after 30 mins; type: ADME, organism-based; conditions: in vivo, 0.5 h
[44] = test system: Spleen; test: Biodistribution in ddY mouse spleen assessed per gram of tissue at 1 uCi, iv after 2 mins; type: ADME, organism-based; conditions: in vivo
[45] = test system: Liver; test: Biodistribution in ddY mouse liver assessed per gram of tissue at 1 uCi, iv after 30 mins; type: ADME, organism-based; conditions: in vivo, 0.5 h
[46] = test system: Brain; test: Biodistribution in ddY mouse brain assessed per gram of tissue at 1 uCi, iv after 120 mins; type: ADME, organism-based; conditions: in vivo, 2 h
[47] = test system: Blood; test: Biodistribution in ddY mouse blood assessed per gram of tissue at 1 uCi, iv after 15 mins; type: ADME, organism-based; conditions: in vivo, 0.25 h
[48] = test system: Intestine; test: Biodistribution in ddY mouse intestine assessed per gram of tissue at 1 uCi, iv after 30 mins; type: ADME, organism-based; conditions: in vivo, 0.5 h

SMILES: O=C(/C=C/c1ccc2[nH]ccc2c1)c1ccc(I)cc1
- Activity [1]: Active
- Ki [2]: 8.22 nM
- Activity [3]: Active

SMILES: Nc1ccc(C(=O)/C=C/c2ccc3[nH]ccc3c2)cc1
- Ki [2]: > 1010 nM

SMILES: O=C(/C=C/c1ccc2[nH]ccc2c1)c1ccc(O)cc1
- Ki [2]: > 360 nM

SMILES: O=C(/C=C/c1ccc2[nH]ccc2c1)c1ccc([125I])cc1
- Drug uptake [4]: 0.85 %ID
- Drug uptake [5]: 4.86 %ID
- Drug uptake [6]: 2.69 %ID
- Drug uptake [7]: 4.15 %ID
- Drug uptake [8]: 2.4 %ID
- Drug uptake [9]: 3.19 %ID
- Drug uptake [10]: 1.89 %ID
- Drug uptake [11]: 3.4 %ID
- Drug uptake [12]: 0.21 %ID
- Drug uptake [13]: 8.85 %ID
- Drug uptake [14]: 0.96 %ID
- Drug uptake [15]: 4.03 %ID
- Drug uptake [16]: 7.33 %ID
- Drug uptake [17]: 1.36 %ID
- Drug uptake [18]: 4.79 %ID
- Drug uptake [19]: 3.11 %ID
- Drug uptake [20]: 2.21 %ID
- Drug uptake [21]: 0.2 %ID
- Drug uptake [22]: 1.07 %ID
- Drug uptake [23]: 1.48 %ID
- Drug uptake [24]: 2.13 %ID
- Drug uptake [25]: 2.01 %ID
- Drug uptake [26]: 2.01 %ID
- Drug uptake [27]: 2.78 %ID
- Drug uptake [28]: 2.27 %ID
- Drug uptake [29]: 1.43 %ID
- Drug uptake [30]: 0.29 %ID
- Drug uptake [31]: 1.72 %ID
- Drug uptake [32]: 1.72 %ID
- Drug uptake [33]: 1.19 %ID
- Drug uptake [34]: 3.27 %ID
- Drug uptake [35]: 2.96 %ID
- Drug uptake [36]: 1.33 %ID
- Drug uptake [37]: 3.72 %ID
- Drug uptake [38]: 4.2 %ID
- Drug uptake [39]: 7.3 %ID
- Drug uptake [40]: 0.41 %ID
- Drug uptake [41]: 1.61 %ID
- Drug uptake [42]: 2.27 %ID
- Drug uptake [43]: 3.26 %ID
- Drug uptake [44]: 3.02 %ID
- Drug uptake [45]: 1.91 %ID
- Drug uptake [46]: 0.13 %ID
- Drug uptake [47]: 5.7 %ID
- Drug uptake [48]: 2.32 %ID

SMILES: O=C(/C=C/c1ccc2[nH]ccc2c1)c1ccc(Br)cc1
- Ki [2]: 8.96 nM

SMILES: CN(C)c1ccc(C(=O)/C=C/c2ccc3[nH]ccc3c2)cc1
- Ki [2]: 5.17 nM

SMILES: COc1ccc2cc(C(=O)/C=C/c3ccc4[nH]ccc4c3)ccc2c1
- Ki [2]: 4.46 nM

SMILES: COc1ccc(C(=O)/C=C/c2ccc3[nH]ccc3c2)cc1
- Ki [2]: 8.52 nM

SMILES: CN(C)c1ccc(/C=C/C(=O)c2ccc(I)cc2)cc1
- Activity [2]: Dose-dependent effect
- Ki [2]: 1.97 nM

SMILES: CNc1ccc(C(=O)/C=C/c2ccc3[nH]ccc3c2)cc1
- Ki [2]: 51.1 nM

SMILES: O=C(/C=C/c1ccc2[nH]ccc2c1)c1ccc(F)cc1
- Ki [2]: 35.1 nM

SMILES: O=C(/C=C/c1ccc2[nH]ccc2c1)c1ccc(Cl)cc1
- Ki [2]: 8.43 nM
